Test results taken from US20150125889A1, “IN VITRO DETECTION OF MICROORGANISMS WITH AZOREDUCTASE ACTIVITY” (BIOMÉRIEUX, priority 2012, published 2015).

Tests used:
Assay in all cases: Reduction of azo substrates over 24 hours at 35° C., microtitration plate (Example 1)
Format in all cases: cell-based
Set-up in all cases: key to RED (substrate reduced or not): RED indicates whether the substrate is reduced (Y) or not (N); RED indicates whether the substrate is reduced (Y) or not (N); key to Co (growth, absorbance at 660 nm) / Decol (substrate decolourized, decrease in absorbance) / Fluo (fluorescence multiplied by 2 relative to substrate-free control): The symbol “+” means good growth/decolourization/significant increase in fluorescence; The symbol “+/−” means difficult growth; The symbol “−” means that there is no growth/decolourization/significant increase in fluorescence
Staphylococcus aureus = conditions: S. aureus, substrate 35 mg/l
Method in brief: (§1)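 Each strain grown in trypcase soya broth containing 35 mg/l azo substrate from a 0.5 McFarland inoculum, read at 35 °C over 24 h. Growth followed by A660; reduction scored as decolourization (falling absorbance) and/or fluorescence doubling versus substrate-free control. Results given as qualitative +, +/−, − and reduced Y/N.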

Kocuria rosea = conditions: K. rosea, substrate 35 mg/l
Method in brief: as §1

[1] = system: Staphylococcus epidermidis; conditions: S. epidermidis, substrate 35 mg/l
Method in brief: as §1

Candida albicans = conditions: substrate 35 mg/l
Method in brief: as §1

Cronobacter muytjensii = conditions: E. muytjensii, substrate 35 mg/l
Method in brief: as §1

Escherichia coli = conditions: E. coli, substrate 35 mg/l
Method in brief: as §1

Pseudomonas aeruginosa = conditions: P. aeruginosa, substrate 35 mg/l
Method in brief: as §1

Structure (SMILES) | Co (growth, absorbance at 660 nm) (Staphylococcus aureus) | Decol (substrate decolourized, decrease in absorbance) (Staphylococcus aureus) | Fluo (fluorescence multiplied by 2 relative to substrate-free control) (Staphylococcus aureus) | RED (substrate reduced or not) (Staphylococcus aureus) | Co (growth, absorbance at 660 nm) (Kocuria rosea) | Decol (substrate decolourized, decrease in absorbance) (Kocuria rosea) | Fluo (fluorescence multiplied by 2 relative to substrate-free control) (Kocuria rosea) | Co (growth, absorbance at 660 nm) [1] | Decol (substrate decolourized, decrease in absorbance) [1] | Fluo (fluorescence multiplied by 2 relative to substrate-free control) [1] | RED (substrate reduced or not) [1] | Co (growth, absorbance at 660 nm) (Candida albicans) | Decol (substrate decolourized, decrease in absorbance) (Candida albicans) | Fluo (fluorescence multiplied by 2 relative to substrate-free control) (Candida albicans) | RED (substrate reduced or not) (Candida albicans) | Co (growth, absorbance at 660 nm) (Cronobacter muytjensii) | Decol (substrate decolourized, decrease in absorbance) (Cronobacter muytjensii) | Fluo (fluorescence multiplied by 2 relative to substrate-free control) (Cronobacter muytjensii) | RED (substrate reduced or not) (Cronobacter muytjensii) | Co (growth, absorbance at 660 nm) (Escherichia coli) | other results
O=C(O)c1cc(/N=N/c2ccc(-c3nc4ccccc4s3)cc2)ccc1O [BF45, 2-Phenyl-benzothiazole-4′-azo-4″- hydroxybenzene-3″-carboxylic acid] | + | + | + | Y | + | − | + | + | − | + | Y | + | − | − | N | + | − | − | N | + | RED (substrate reduced or not) (Kocuria rosea): Y; Decol (substrate decolourized, decrease in absorbance) (Escherichia coli): −; Fluo (fluorescence multiplied by 2 relative to substrate-free control) (Escherichia coli): +; RED (substrate reduced or not) (Escherichia coli): Y; Co (growth, absorbance at 660 nm) (Pseudomonas aeruginosa): +; Decol (substrate decolourized, decrease in absorbance) (Pseudomonas aeruginosa): −; Fluo (fluorescence multiplied by 2 relative to substrate-free control) (Pseudomonas aeruginosa): −; RED (substrate reduced or not) (Pseudomonas aeruginosa): N
CN(C)c1ccc(N=Nc2ccc(S(=O)(=O)[O-])cc2)cc1.[Na+] [Methyl orange] | + | − | − | N | − | − | − | + | − | − | N | + | − | − | N | + | − | − | N | + | Decol (substrate decolourized, decrease in absorbance) (Escherichia coli): −; Fluo (fluorescence multiplied by 2 relative to substrate-free control) (Escherichia coli): −; RED (substrate reduced or not) (Escherichia coli): N; Co (growth, absorbance at 660 nm) (Pseudomonas aeruginosa): +; Decol (substrate decolourized, decrease in absorbance) (Pseudomonas aeruginosa): −; Fluo (fluorescence multiplied by 2 relative to substrate-free control) (Pseudomonas aeruginosa): −; RED (substrate reduced or not) (Pseudomonas aeruginosa): N
CN(C)c1ccc(/N=N/c2ccccc2C(=O)O)cc1 [Methyl red] | + | + | + | Y | +/− | +/− | + | + | + | + | Y | + | + | + | Y | + | + | + | Y | + | RED (substrate reduced or not) (Kocuria rosea): Y; Decol (substrate decolourized, decrease in absorbance) (Escherichia coli): +; Fluo (fluorescence multiplied by 2 relative to substrate-free control) (Escherichia coli): +; RED (substrate reduced or not) (Escherichia coli): Y; Co (growth, absorbance at 660 nm) (Pseudomonas aeruginosa): +; Decol (substrate decolourized, decrease in absorbance) (Pseudomonas aeruginosa): +/−; Fluo (fluorescence multiplied by 2 relative to substrate-free control) (Pseudomonas aeruginosa): +; RED (substrate reduced or not) (Pseudomonas aeruginosa): Y
O=S(=O)([O-])c1ccc(N=Nc2c(O)ccc3ccccc23)cc1.[Na+] [Orange II] | + | − | − | N | − | − | − | + | − | − | N | + | − | − | N | + | − | − | N | + | Decol (substrate decolourized, decrease in absorbance) (Escherichia coli): −; Fluo (fluorescence multiplied by 2 relative to substrate-free control) (Escherichia coli): −; RED (substrate reduced or not) (Escherichia coli): N; Co (growth, absorbance at 660 nm) (Pseudomonas aeruginosa): +; Decol (substrate decolourized, decrease in absorbance) (Pseudomonas aeruginosa): −; Fluo (fluorescence multiplied by 2 relative to substrate-free control) (Pseudomonas aeruginosa): −; RED (substrate reduced or not) (Pseudomonas aeruginosa): N
O=C([O-])C1=NN(c2ccc(S(=O)(=O)[O-])cc2)C(=O)C1/N=N/c1ccc(S(=O)(=O)[O-])cc1.[Na+].[Na+].[Na+] (centres unmarked) [Tartrazine] | + | − | − | N | − | − | − | + | − | − | N | + | − | − | N | + | − | − | N | + | Decol (substrate decolourized, decrease in absorbance) (Escherichia coli): −; Fluo (fluorescence multiplied by 2 relative to substrate-free control) (Escherichia coli): −; RED (substrate reduced or not) (Escherichia coli): N; Co (growth, absorbance at 660 nm) (Pseudomonas aeruginosa): +; Decol (substrate decolourized, decrease in absorbance) (Pseudomonas aeruginosa): −; Fluo (fluorescence multiplied by 2 relative to substrate-free control) (Pseudomonas aeruginosa): −; RED (substrate reduced or not) (Pseudomonas aeruginosa): N
